Reference: ChEMBL document CHEMBL5661943, “ASAP - In vitro antiviral effect” (2024)

Columns and labels:
dengue virus type 2 = assay: Functional immunofluorescence assay to measure dose dependent changes in antiviral-drug inhibitory efficacy against Dengue virus type 2 Thailand/16681/84 in Vero E6/TMPRSS2 cells (cotreated with P-gp inhibitor, Elacridar). Cells are treated with antiviral candidates that are serially diluted, following infection, cells are fixed. EC50 is reported via analysis of immunofluorescence staining. The assay has been performed by Icahn School of Medicine at Mount Sinai.; format: organism-based, Chlorocebus sabaeus, VeroE6/TMPRSS2; details: for EC90: P-gp concentration 2 uM, P-gp inhibitor Elacidar
Zika virus = assay: EC50 is reported via analysis of immunofluorescence staining. The assay has been performed by Icahn School of Medicine at Mount Sinai.; format: functional, organism-based, Chlorocebus sabaeus, VeroE6/TMPRSS2; details: for EC90: P-gp concentration 2 uM, P-gp inhibitor Elacidar

With `CCOC(=O)[C@H]1[C@H](c2cc(Cl)cc(NC(=O)OCc3ccccc3)c2)[C@H]1c1cccc(-c2nnn[nH]2)c1` the EC50 (dengue virus type 2; Dengue virus, VeroE6/TMPRSS2) was 10.1 µM, the EC90 (dengue virus type 2; Dengue virus, VeroE6/TMPRSS2, Baseline response 0 %, Hill slope -0.678, Maximum measured 159.228 %, Maximum response 100 %, Minimum measured 7.966 %, R squared 0.513) was over 50 µM and the EC50 (Zika virus; Zika virus, VeroE6/TMPRSS2) was 39.5 µM. The EC90 (Zika virus; Zika virus, VeroE6/TMPRSS2, Baseline response 0 %, Hill slope -17.688, Maximum measured 145.242 %, Maximum response 100 %, Minimum measured 1.538 %, R squared 0.641) was 44.8 µM.

`c1ccc2c(CN3CCC(c4cscn4)CC3)c[nH]c2c1` showed an EC90 (dengue virus type 2; Baseline response 0 %, Hill slope -0.247, Maximum measured 100.251 %, Maximum response 100 %, Minimum measured 62.836 %, R squared 0.15) of over 10 µM, an EC90 (dengue virus type 2; Baseline response 0 %, Hill slope -0.248, Maximum measured 160.986 %, Maximum response 100 %, Minimum measured 66.91 %, R squared 0.115) of over 50 µM and an EC50 (dengue virus type 2; veroe6/tmprss2) of over 50 µM. It also gave an EC90 (Zika virus; Zika virus, VeroE6/TMPRSS2, Maximum measured 113.51 %, Minimum measured 55.055 %) of over 10 µM, an EC90 (Zika virus; Zika virus, VeroE6/TMPRSS2, Maximum measured 115.408 %, Minimum measured 68.286 %) of over 50 µM and an EC50 (Zika virus; veroe6/tmprss2) of over 50 µM.

For `NCc1cccc(NC(=O)C[C@H](NC(=O)OCc2ccccc2)c2ccc(OCc3ccccc3)c(Br)c2)c1`, the EC50 (dengue virus type 2; Dengue virus, VeroE6/TMPRSS2) was over 16.7 µM, the EC90 (dengue virus type 2; Dengue virus, VeroE6/TMPRSS2, Baseline response 0 %, Hill slope 0.065, Maximum measured 60.527 %, Maximum response 100 %, Minimum measured 30.522 %, R squared 0.087) was over 16.7 µM and the EC50 (Zika virus; Zika virus, VeroE6/TMPRSS2) was 1.7 µM. It also gave an EC90 (Zika virus; Zika virus, VeroE6/TMPRSS2, Baseline response 0 %, Hill slope -0.518, Maximum measured 120.113 %, Maximum response 100 %, Minimum measured 9.459 %, R squared 0.639) of over 50 µM.

`CNC(=O)[C@H](Nc1cc(Cl)cc(NC(=O)OCc2ccccc2)c1)c1cccc(-c2nn[nH]n2)c1` gave an EC50 (dengue virus type 2; Dengue virus, VeroE6/TMPRSS2) of over 50 µM, an EC90 (dengue virus type 2; Dengue virus, VeroE6/TMPRSS2, Baseline response 0 %, Hill slope -0.094, Maximum measured 132.889 %, Maximum response 100 %, Minimum measured 51.11 %, R squared 0.041) of over 50 µM and an EC50 (Zika virus; Zika virus, VeroE6/TMPRSS2) of over 50 µM. It also gave an EC90 (Zika virus; Zika virus, VeroE6/TMPRSS2, Maximum measured 214.272 %, Minimum measured 122.906 %) of over 50 µM.

With `Cc1ccc2cc(Cl)cc(C(=O)Nc3ccc4c(c3)CNC4)c2n1` the EC50 (dengue virus type 2; Dengue virus, VeroE6/TMPRSS2) was over 5.56 µM, the EC90 (dengue virus type 2; Dengue virus, VeroE6/TMPRSS2, Maximum measured 235.971 %, Minimum measured 154.17 %) was over 5.56 µM and the EC50 (Zika virus; Zika virus, VeroE6/TMPRSS2) was over 16.7 µM. It also gave an EC90 (Zika virus; Zika virus, VeroE6/TMPRSS2, Maximum measured 117.23 %, Minimum measured 34.966 %) of over 16.7 µM.

`CC(=O)Nc1cc(Cl)cc(C(=O)Nc2cccc(CN)c2)c1` was tested, and the EC50 (dengue virus type 2; Dengue virus, VeroE6/TMPRSS2) was over 16.7 µM, the EC90 (dengue virus type 2; Dengue virus, VeroE6/TMPRSS2, Maximum measured 143.919 %, Minimum measured 91.997 %) was over 16.7 µM and the EC50 (Zika virus; Zika virus, VeroE6/TMPRSS2) was over 50 µM. It also gave an EC90 (Zika virus; Zika virus, VeroE6/TMPRSS2, Baseline response 0 %, Hill slope 0.296, Maximum measured 131.154 %, Maximum response 100 %, Minimum measured 80.704 %, R squared 0.041) of over 50 µM.

`CCOc1cccc(-c2ccc(S(=O)(=O)Nc3cc4c(cc3C(=O)O)CCC4)cc2)c1` was tested, and the EC50 (dengue virus type 2; Dengue virus, VeroE6/TMPRSS2) was over 16.7 µM, the EC90 (dengue virus type 2; Dengue virus, VeroE6/TMPRSS2, Baseline response 0 %, Hill slope -0.37, Maximum measured 131.408 %, Maximum response 100 %, Minimum measured 56.89 %, R squared 0.244) was over 16.7 µM and the EC50 (Zika virus; Zika virus, VeroE6/TMPRSS2) was over 50 µM. For the same molecule, the EC90 (Zika virus; Zika virus, VeroE6/TMPRSS2, Baseline response 0 %, Hill slope -16.078, Maximum measured 130.08 %, Maximum response 100 %, Minimum measured 52.734 %, R squared 0.304) was over 50 µM.

`NCc1ccc(F)c(NC(=O)c2cc(Cl)cc(NC(=O)OCc3ccccc3)c2)c1` was tested, and the EC50 (dengue virus type 2; Dengue virus, VeroE6/TMPRSS2) was over 5.56 µM, the EC90 (dengue virus type 2; Dengue virus, VeroE6/TMPRSS2, Maximum measured 158.385 %, Minimum measured 97.578 %) was over 5.56 µM and the EC50 (Zika virus; Zika virus, VeroE6/TMPRSS2) was over 5.56 µM. The EC90 (Zika virus; Zika virus, VeroE6/TMPRSS2, Maximum measured 191.718 %, Minimum measured 113.213 %) was over 5.56 µM.

Molecule `CCOc1cccc(-c2ccc(S(=O)(=O)Nc3ccc(Cl)cc3C(=O)O)cc2)c1` has an EC90 (dengue virus type 2; Dengue virus, VeroE6/TMPRSS2, Maximum measured 86.49 %, Minimum measured 33.39 %) of over 3.33 µM, an EC90 (dengue virus type 2; Dengue virus, VeroE6/TMPRSS2, Maximum measured 135.635 %, Minimum measured 86.345 %) of over 16.7 µM and an EC50 (dengue virus type 2; veroe6/tmprss2) of over 16.7 µM. For the same molecule, the EC90 (Zika virus; Baseline response 0 %, Hill slope -0.264, Maximum measured 100.253 %, Maximum response 100 %, Minimum measured 37.313 %, R squared 0.296) was over 16.7 µM, the EC50 (Zika virus; Zika virus, VeroE6/TMPRSS2) was over 10 µM and the EC90 (Zika virus; Zika virus, VeroE6/TMPRSS2, Baseline response 0 %, Hill slope -0.107, Maximum measured 149.039 %, Maximum response 100 %, Minimum measured 60.172 %, R squared 0.014) was over 10 µM. The EC50 (Zika virus; veroe6/tmprss2) was 9.76 µM.
